Test: UV absorption spectrum in ethanol (UV-A screening power)
Format: physicochemical
Settings: UV (EtOH); for E1% / εmax: at λmax

| SMILES | λmax | E1% | εmax |
| --- | --- | --- | --- |
| C=C(C)COc1ccc(C=C(C#N)S(=O)(=O)c2ccccc2)cc1 [2-benzenesulfonyl-3-[4-(2-methylallyloxy)phenyl]acrylonitrile] | 345 nm | 736 |  |
| C[Si](C)(C)CCCOc1ccc(/C=C(\C#N)S(=O)(=O)c2ccccc2)cc1 [Example 1, 2-benzenesulfonyl-3-[4-(3-trimethylsilanylpropoxy)phenyl]acrylonitrile] | 347 nm | 813 | 32 500 |
| CC(COc1ccc(/C=C(\C#N)S(=O)(=O)c2ccccc2)cc1)C[Si](C)(O[Si](C)(C)C)O[Si](C)(C)C (centres unmarked) [Example 2, [4-[2-methyl-3-[1,3,3,3-tetramethyl-1-[(trimethylsilyl)oxy]disiloxanyl]propyloxy]phenyl]-2-(benzenesulfonyl)acrylonitrile] | 348 nm | 632 | 35 500 |

Reference: US7138108B2, “Photoprotective UV-screening compositions comprising (phenylsulfonyl) acrylonitrile-substituted silanes/siloxanes” (L'Oreal, priority 2002, dated 2006)
